Experimental data published in patent US6818669B2, “Increasing cerebral bioavailability of drugs” (Enos Pharmaceuticals, Inc., priority 1999, dated 2004).

What was measured:
wild type mice = experiment: Regional cerebral blood flow (rCBF) by laser-Doppler flowimetry after L-arginine infusion, wild type and simvastatin-treated mice; assay type: in vivo
From the text: (§1) The number of mice in each group is indicated in parenthesis.

[1] = test system: mutant mice deficient in endothelial nitric oxide synthase (eNOS null); experiment: Regional cerebral blood flow (rCBF) by laser-Doppler flowimetry after L-arginine infusion, eNOS null mice; assay type: in vivo; conditions: L-arginine 450 mg/kg i.v.
From the text: as §1

[2] = Uptake of tritium labeled Dizocilpine in MCA territory after MCA occlusion (Example 6, autoradiography); assay type: in vivo, mice; conditions: L-arginine 400 mg/kg infusion over 10 min acutely or Simvastatin SC 3 weeks, Example 6 written in present tense
Description: 4 groups of mice receive the following treatments by SQ administration for 3 weeks, followed on day 22 by a surgery where an MCA occlusion is induced by an insertion of a modified 8-0 suture. […] Thereafter the mice are sacrificed at 15 and 30 minutes, and the brain tissue is frozen and sectioned and then analyzed by autoradiographic methods to quantitate the amount of radiolabeled compound present within the MCA territory on the side of occlusion.
1) 2 groups of saline SC injection over 3 weeks
a) 1 group after surgery received radio labeled Dizocilpine
2) 2 groups of Simvastain SC injection over 3 weeks

[3] = mouse, in vivo
[4] = L-arginine infusion in simvastatin-treated mice
[5] = wild type mice, L-arginine 450 mg/kg i.v.

| Compound | increase of baseline rCBF (wild type mice; after chronic daily administration of simvastatin alone) | elevations in regional cerebral blood flow (RCBF) (wild type mice; L-arginine 300 mg/kg i.v., preliminary experiments n=4, modest and variable) | additional time for which rCBF increases sustained (wild type mice; [4]) | time of maximum rCBF increase (wild type mice; [4]) | maximum rCBF increase over simvastatin baseline (wild type mice; L-arginine infusion in simvastatin-treated mice, at 15-20 min) | increase in blood flow in the 30-40 minute epoch, simvastatin treated compared to non treated control (wild type mice; L-arginine infusion, P<0.05) | time at which increase in RCBF began (wild type mice; [5]) | time of maximum rCBF values (wild type mice; [5]) | time at which RCBF increase achieved statistical significance (wild type mice; wild type mice, L-arginine 450 mg/kg i.v., after infusion) | maximum rCBF increase above baseline (wild type mice; wild type mice, L-arginine 450 mg/kg i.v., parietal cortex, at 20-25 min) | rCBF change during the 40 minute recording period [1] | rCBF response (in words) [1] | uptake of Dizocilpine within the underperfused brain [2] | blood pH after infusion (in words) [3] |
| --- | --- | --- | --- | --- | --- | --- | --- | --- | --- | --- | --- | --- | --- | --- |
| CCC(C)(C)C(=O)O[C@H]1C[C@@H](C)C=C2C=C[C@H](C)[C@H](CC[C@@H]3C[C@@H](O)CC(=O)O3)[C@H]21 [simvastatin] | 25% | – | – | – | – | – | – | – | – | – | – | – | – | – |
| N=C(N)NCCC[C@H](N)C(=O)O [L-arginine] | – | 10% | 20 min | 15 to 20 min | 29-31% | larger | 5 to 10 min | 20 to 25 min | 10 to 15 min | 26% | −4 to +5% | did not increase rCBF | higher uptake | lower |
